The text below walks through data of patent US20250152936A1, “METHOD FOR THE TREATMENT OF VASCULAR ANOMALIES BY ADMINISTERING ONE OR MORE SCLEROSING AGENTS AND APPLYING A SERIES OF ELECTRIC PULSES” (IGEA S.P.A., priority 2023, published 2025).

One data set relates to venous malformation. In words: Electrosclerotherapy case, Example 2 (patient, photographs, 3 years follow-up).
The subject of data set [1] is venous malformations that did not respond to previous invasive therapies. To be noted: 17 patients, cited from earlier work.
Data set [2] has as its system symptomatic venous malformation of the left thigh. The data set is described as follows: Electrosclerotherapy case, Example 1 (patient, MRI follow-up). To be noted: 1.5 mg bleomycin. In kind it is in vivo, human. Here is the method:
FIGS. 1A and 1C show magnetic resonance of a symptomatic venous malformation of the left thigh in a patient previously treated with surgery and sclerotherapy;
FIGS. 1B and 1D show magnetic resonance of the symptomatic venous malformation of FIG. 1A three months after one electrosclerotherapy session.
A patient with a symptomatic venous malformation of the left thigh, causing swelling, pain, and partial immobility, recurring after surgery and sclerotherapy with Aethoxysklerol was treated with electrosclerotherapy using custom geometry electrodes and 1.5 mg bleomycin. […] Volume of the lesion before treatment: 26.79 cm^3; volume of the lesion after treatment: 0.00 cm^3.

As to `CCO` [ethanol], the outcome of sclerotherapy in the data set on venous malformation (7 sessions of ethanol sclerotherapy, without electric pulses) is “unsuccessfully treated”.

For the molecule bleomycin, the clinical improvement result in data set [1] (after an average of 3.7 months and 1.12 sessions per patient) was “clinical improvement in all patients”. The “decrease in lesion volume on magnetic resonance imaging (average)” value in data set [1] (bleomycin in combination with reversible electroporation, average 3.7 months and 1.12 sessions per patient) is listed as 86%. The functionality of nerves entry with venous malformation (2 sessions of electrosclerotherapy, finger electrode, 2 mg of Bleomycin per session, 3 years follow-up) is on record as “Functionality of nerves is preserved”. The “magnetic resonance imaging outcome of the malformation” value in data set [2] (custom geometry electrodes, 3 months after one session of electrosclerotherapy) was “complete resolution of the malformation”. In addition, the adverse events result in data set [2] (one electrosclerotherapy session) is reported as “No documented adverse events”. Besides, the “volume of the lesion after treatment” value in data set [2] (one electrosclerotherapy session, volume before treatment 26.79 cm^3) was 0.00 cm^3.
